Results on 23 compounds are retold here after ChEMBL document CHEMBL4823314, “Design, synthesis and biological evaluation of novel acridine and quinoline derivatives as tubulin polymerization inhibitors with anticancer activities” (Bioorg Med Chem, 2021).

Structures are written as SMILES.

In one assay the test system is HeLa. Briefly: cells. The following applies: Homo sapiens, 48 h.
Description: Antiproliferative activity against human HeLa cells assessed as reduction in cell viability measured after 48 hrs by MTT assay
`CCCCN(c1ccc(OC)cc1)c1ccnc2cc(Cl)ccc12`: the IC50 (in general, the concentration that gives 50% inhibition) is 6.47 µM.
For `COc1cc(N(C)c2c3ccccc3nc3ccccc23)cc(OC)c1OC`, 2.7 µM corresponded to half-maximal inhibition (IC50).
`COc1ccc2nc3cc(Cl)ccc3c(Nc3cc(OC)c(OC)c(OC)c3)c2c1` had an IC50 of 8.07 µM.
As to `COc1ccc(N(C)c2c3ccc(Cl)cc3nc3ccc(OC)cc23)cc1`, inhibition was half-maximal at 8.95 µM (IC50).
In the case of `COc1cc(Nc2ccnc(C)c2)cc(OC)c1OC`, the IC50 amounted to 16.1 µM.
For `COc1ccc(N(C)c2ccnc(C)c2)cc1`, the IC50 is 18.7 µM.
`Fc1ccc(Nc2cccc3ncccc23)cc1Cl` yielded a half-inhibitory concentration (IC50) of 44.9 µM.
`COc1cc(N(C)c2cccc3ncccc23)cc(OC)c1OC` gave an IC50 of 8.27 µM.
For the compound `COc1ccc2nc3cc(Cl)ccc3c(N(C)c3cc(OC)c(OC)c(OC)c3)c2c1`, the IC50 stood at 4.01 µM.
Consider `COc1cc(N(C)c2ccnc(C)c2)cc(OC)c1OC`, for which half-maximal inhibition (IC50) was put at 14.1 µM.
The compound `CCCCN(c1cc(OC)c(OC)c(OC)c1)c1c2ccc(Cl)cc2nc2ccc(OC)cc12` registered an IC50 of 6.08 µM.
Compound `CN(c1ccc(C#N)cc1)c1cccc2ncccc12` yielded an IC50 of 36.5 µM.
`COc1ccc(Nc2ccnc(C)n2)cc1` registered an IC50 of 13.6 µM.
The compound `COc1cc(Nc2ccnc(C)n2)cc(OC)c1OC` returned an IC50 of 10.6 µM.
Take `COc1ccc(N(C)c2c3ccccc3nc3ccccc23)cc1`: half-maximal inhibition (IC50) was put at 6.49 µM.
`N#Cc1ccc(Nc2cccc3ncccc23)cc1` came in with an IC50 of 43.2 µM.
Compound `CCCCN(c1ccc(C#N)cc1)c1cccc2ncccc12` registered an IC50 of 42.9 µM.
In the case of `CCCCN(c1ccc(OC)cc1)c1ccnc(C)c1`, the IC50 stood at 19.7 µM.
`CN(c1ccc(F)c(Cl)c1)c1cccc2ncccc12`: half-maximal inhibition (IC50) was put at 30.9 µM.
Turning to `COc1cc(Nc2c3ccccc3nc3ccccc23)cc(OC)c1OC`, the IC50 turned out to be 6.8 µM.
In the case of `COc1cc(N(C)c2ccnc3cc(Cl)ccc23)cc(OC)c1OC`, the IC50 amounted to 16.1 µM.
Compound `COc1ccc(Nc2ccnc3cc(Cl)ccc23)cc1` showed an IC50 of 8.79 µM.
With `COc1ccc(Nc2ccnc(C)c2)cc1`, it took 21 µM to reach half-maximal inhibition (IC50).

The test system of the next assay is HepG2. Briefly: Antiproliferative activity against human HepG2 cells assessed as reduction in cell viability measured after 48 hrs by MTT assay. The following applies: HepG2, 48 h. The assay is classed as functional, cell-based. (In general: Formazan colour is commonly taken as a measure of viable cells.)
For `CCCCN(c1ccc(OC)cc1)c1ccnc2cc(Cl)ccc12`, the IC50 is 5.69 µM.
`COc1cc(N(C)c2c3ccccc3nc3ccccc23)cc(OC)c1OC`: the IC50 was found to be 1.81 µM.
With `COc1ccc2nc3cc(Cl)ccc3c(Nc3cc(OC)c(OC)c(OC)c3)c2c1`, the IC50 was found to be 5.23 µM.
For the compound `COc1ccc(N(C)c2c3ccc(Cl)cc3nc3ccc(OC)cc23)cc1`, the IC50 amounted to 7.24 µM.
Turning to `COc1cc(Nc2ccnc(C)c2)cc(OC)c1OC`, the IC50 came to 11.4 µM.
Consider `COc1ccc(N(C)c2ccnc(C)c2)cc1`, for which the IC50 came out at 15.5 µM.
Still for that read-out and setting: the result for `Fc1ccc(Nc2cccc3ncccc23)cc1Cl` reads 32.1 µM; that for `COc1cc(N(C)c2cccc3ncccc23)cc(OC)c1OC`, 5.24 µM.
As to `COc1ccc2nc3cc(Cl)ccc3c(N(C)c3cc(OC)c(OC)c(OC)c3)c2c1`, the concentration for half-maximal inhibition (IC50) amounted to 2.83 µM.
On the same count and under the same terms, the result for `COc1cc(N(C)c2ccnc(C)c2)cc(OC)c1OC` reads 18.6 µM.
The same measure, in the same setting: the result for `CCCCN(c1cc(OC)c(OC)c(OC)c1)c1c2ccc(Cl)cc2nc2ccc(OC)cc12` reads 3.5 µM; that for `CN(c1ccc(C#N)cc1)c1cccc2ncccc12`, 28.7 µM; that for `COc1ccc(Nc2ccnc(C)n2)cc1`, 6.78 µM.
Take `COc1cc(Nc2ccnc(C)n2)cc(OC)c1OC`: the IC50 was 8.18 µM.
With `COc1ccc(N(C)c2c3ccccc3nc3ccccc23)cc1`, the IC50 came out at 4.18 µM.
Still for that read-out and setting: as for `N#Cc1ccc(Nc2cccc3ncccc23)cc1`, the figure is 37.5 µM.
Regarding `CCCCN(c1ccc(C#N)cc1)c1cccc2ncccc12`, the IC50 was determined as 30.1 µM.
On to `CCCCN(c1ccc(OC)cc1)c1ccnc(C)c1`, for which the IC50 came to 18.7 µM.
For `CN(c1ccc(F)c(Cl)c1)c1cccc2ncccc12`, the IC50 was found to be 20.1 µM.
Same read-out and setting: as for `COc1cc(Nc2c3ccccc3nc3ccccc23)cc(OC)c1OC`, the figure is 4.46 µM; as for `COc1cc(N(C)c2ccnc3cc(Cl)ccc23)cc(OC)c1OC`, 11.4 µM; as for `COc1ccc(Nc2ccnc3cc(Cl)ccc23)cc1`, 6.98 µM.
Take `COc1ccc(Nc2ccnc(C)c2)cc1`: the IC50 amounted to 14.8 µM.

The test system of the next assay is B16-F10. Briefly: Antiproliferative activity against mouse B16-F10 cells assessed as reduction in cell viability measured after 48 hrs by MTT assay. The assay is classed as functional, cell-based. The note with it: B16-F10, 48 h.
On to `CCCCN(c1ccc(OC)cc1)c1ccnc2cc(Cl)ccc12`, for which the IC50 turned out to be 6.84 µM.
For `COc1cc(N(C)c2c3ccccc3nc3ccccc23)cc(OC)c1OC`, the half-maximal inhibitory concentration (IC50) worked out at 1.39 µM.
The same measure, in the same setting: the result for `COc1ccc2nc3cc(Cl)ccc3c(Nc3cc(OC)c(OC)c(OC)c3)c2c1` reads 6.97 µM; that for `COc1ccc(N(C)c2c3ccc(Cl)cc3nc3ccc(OC)cc23)cc1`, 8.05 µM.
On to `COc1cc(Nc2ccnc(C)c2)cc(OC)c1OC`, for which the IC50 came out at 18.9 µM.
On to `COc1ccc(N(C)c2ccnc(C)c2)cc1`, for which the IC50 was found to be 15.4 µM.
As for `Fc1ccc(Nc2cccc3ncccc23)cc1Cl`, the IC50 stood at 38.1 µM.
On the same count and under the same terms, the result for `COc1cc(N(C)c2cccc3ncccc23)cc(OC)c1OC` reads 6.58 µM; that for `COc1ccc2nc3cc(Cl)ccc3c(N(C)c3cc(OC)c(OC)c(OC)c3)c2c1`, 3.79 µM; that for `COc1cc(N(C)c2ccnc(C)c2)cc(OC)c1OC`, 22.5 µM.
In the case of `CCCCN(c1cc(OC)c(OC)c(OC)c1)c1c2ccc(Cl)cc2nc2ccc(OC)cc12`, the IC50 came out at 4.66 µM.
For the compound `CN(c1ccc(C#N)cc1)c1cccc2ncccc12`, the IC50 amounted to 25.2 µM.
The same measure, in the same setting: as for `COc1ccc(Nc2ccnc(C)n2)cc1`, the figure is 10.6 µM.
Take `COc1cc(Nc2ccnc(C)n2)cc(OC)c1OC`: the IC50 amounted to 10 µM.
For the compound `COc1ccc(N(C)c2c3ccccc3nc3ccccc23)cc1`, the IC50 is 5.78 µM.
Consider `N#Cc1ccc(Nc2cccc3ncccc23)cc1`, for which the IC50 turned out to be 40.4 µM.
Still for that read-out and setting: as for `CCCCN(c1ccc(C#N)cc1)c1cccc2ncccc12`, the figure is 33.1 µM; as for `CCCCN(c1ccc(OC)cc1)c1ccnc(C)c1`, 20.2 µM; as for `CN(c1ccc(F)c(Cl)c1)c1cccc2ncccc12`, 25.5 µM.
Turning to `COc1cc(Nc2c3ccccc3nc3ccccc23)cc(OC)c1OC`, the IC50 is 6.54 µM.
Consider `COc1cc(N(C)c2ccnc3cc(Cl)ccc23)cc(OC)c1OC`, for which the IC50 stood at 13.3 µM.
Regarding `COc1ccc(Nc2ccnc3cc(Cl)ccc23)cc1`, the IC50 was 8.32 µM.
As for `COc1ccc(Nc2ccnc(C)c2)cc1`, the IC50 was 16.6 µM.

Another assay deals with MCF7. Briefly: cells. The note with it: Homo sapiens, MCF7, 48 h.
Description: Antiproliferative activity against human MCF7 cells assessed as reduction in cell viability measured after 48 hrs by MTT assay
Turning to `CCCCN(c1ccc(OC)cc1)c1ccnc2cc(Cl)ccc12`, the IC50 amounted to 7.12 µM.
Compound `COc1cc(N(C)c2c3ccccc3nc3ccccc23)cc(OC)c1OC` registered a half-maximal inhibitory concentration (IC50) of 2.03 µM.
Take `COc1ccc2nc3cc(Cl)ccc3c(Nc3cc(OC)c(OC)c(OC)c3)c2c1`: half-maximal inhibition (IC50) required 6.6 µM.
On to `COc1ccc(N(C)c2c3ccc(Cl)cc3nc3ccc(OC)cc23)cc1`, for which inhibition was half-maximal at 7.77 µM (IC50).
Turning to `COc1cc(Nc2ccnc(C)c2)cc(OC)c1OC`, the IC50 is 13.3 µM.
`COc1ccc(N(C)c2ccnc(C)c2)cc1` came in with an IC50 of 13.3 µM.
Turning to `Fc1ccc(Nc2cccc3ncccc23)cc1Cl`, the IC50 was found to be 36.4 µM.
Still for that read-out and setting: as for `COc1cc(N(C)c2cccc3ncccc23)cc(OC)c1OC`, the figure is 6.36 µM; as for `COc1ccc2nc3cc(Cl)ccc3c(N(C)c3cc(OC)c(OC)c(OC)c3)c2c1`, 3.13 µM; as for `COc1cc(N(C)c2ccnc(C)c2)cc(OC)c1OC`, 15.3 µM.
Compound `CCCCN(c1cc(OC)c(OC)c(OC)c1)c1c2ccc(Cl)cc2nc2ccc(OC)cc12` returned an IC50 of 4.86 µM.
With `CN(c1ccc(C#N)cc1)c1cccc2ncccc12`, the IC50 is 30.9 µM.
The same measure, in the same setting: as for `COc1ccc(Nc2ccnc(C)n2)cc1`, the figure is 12.5 µM.
`COc1cc(Nc2ccnc(C)n2)cc(OC)c1OC`: the IC50 turned out to be 11.5 µM.
Consider `COc1ccc(N(C)c2c3ccccc3nc3ccccc23)cc1`, for which half-maximal inhibition (IC50) was put at 5.17 µM.
On to `N#Cc1ccc(Nc2cccc3ncccc23)cc1`, for which the half-inhibitory concentration (IC50) is 35.6 µM.
With `CCCCN(c1ccc(C#N)cc1)c1cccc2ncccc12`, the IC50 was 29.7 µM.
Regarding `CCCCN(c1ccc(OC)cc1)c1ccnc(C)c1`, the IC50 is 22.5 µM.
`CN(c1ccc(F)c(Cl)c1)c1cccc2ncccc12` displayed an IC50 of 23.6 µM.
`COc1cc(Nc2c3ccccc3nc3ccccc23)cc(OC)c1OC` had an IC50 of 5.67 µM.
The compound `COc1cc(N(C)c2ccnc3cc(Cl)ccc23)cc(OC)c1OC` displayed an IC50 of 14.3 µM.
`COc1ccc(Nc2ccnc3cc(Cl)ccc23)cc1` came in with an IC50 of 9.69 µM.
`COc1ccc(Nc2ccnc(C)c2)cc1`: the IC50 amounted to 21.1 µM.
